In US12275995B2, “Lysinibacillus sphaericus and aspirin chemoprevention of colorectal cancer” (priority 2019, dated 2025):

Columns and labels:
[1] = system: Lysinibacillus sphaericus; test: In vitro incubation of L. sphaericus with antibiotics (cell growth); format: cell-based; conditions: in vitro incubation with single antibiotics of the cocktail
[2] = reference 24, cited from earlier work
[3] = system: colorectal tumorigenesis; test: APCmin/+ spontaneous colorectal cancer mouse model; format: in vivo; conditions: aspirin 400 mg/L drinking water; microbiota-depleted APCmin/+ mice
Experimental: (§1) Drinking water was supplemented with antibiotics cocktail (0.2 g/L of ampicillin, neomycin and metronidazole and 0.1 g/L of vancomycin) for two weeks, every other two weeks, till the end of experiment, to deplete the gut microbiota. Aspirin (Byer, Leverkusen, Germany), freshly prepared (400 mg/L) in drinking water twice a week, was continuously given to mice through the entire experiment. […] At day 80 for AOM/DSS model and day 84 for APC^min/+ model, mice were harvested. The intestines were longitudinally opened along the mesenteric margin and flushed with ice-cold phosphate-buffered saline (PBS). Solid neoplastic lesions were carefully counted for tumor number and measured for tumor size (average diameter, (major diameter+minor diameter)/2) and tumor load (sum of average diameters of all tumors). The intestinal tissues were fixed in 10% neutral buffered formalin and embedded in paraffin. Sections (4 μm) were stained with hematoxylin and eosin for histological examination by a pathologist (A/Professor Anthony W H Chan) who was blind to the experimental design. The remaining tissues were snap-frozen in liquid nitrogen, and stored at −80° C. until use. All procedures adhered to the guidelines approved by the Animal Experimentation Ethics Committee of the Chinese University of Hong Kong.

[4] = system: colorectal tumorigenesis; test: AOM/DSS-treated germ-free and conventionalized germ-free Kunming mice; format: in vivo
Experimental: Germ-free wild-type Kunming mice (10 weeks old) in male gender were treated with AOM and DSS to induce intestinal neoplasia. The treatment regimens of AOM, DSS and aspirin were the same as described for conventional mice. In a separate experiment, to determine the direct effects of microbiota on chemoprevention, germ-free mice were conventionalized after their cages were placed out of germ-free environment at 10 weeks old prior to treatment. The remaining procedures performed were the same as described for conventional mice. Germ-free mice were bred at the Department of Laboratory Animal Science, The Third Military Medical University, Chongqing, China. The germ-free animal experiments were approved by the Animal Experimentation Ethics Committee of The Third Military Medical University.

[5] = Plasma aspirin/salicylic acid level in APCmin/+ mice with or without antibiotics (UHPLC-Q-TOF/MS); format: in vivo; conditions: for plasma level of aspirin: antibiotics-treated APCmin/+ mice relative to mice with intact microbiota
Experimental: (§2) The levels of aspirin from plasma, gut luminal contents and culture medium was determined by ultra-high-performance liquid chromatography-quadrupole time-of-flight mass spectrometry (UHPLC-Q-TOF/MS). The detection sample was mixed in 5 μL 4-C1-phenylalanine (0.39 mg/mL, internal standard). Aspirin and salicylic acid were extracted twice by 400 μL cold methanol. Supernatants were dried under nitrogen stream and detected by UHPLC (1290 Infinity LC, Agilent, Santa Clara, Calif.) and MS (6550 Q-TOF/MS, Agilent, CA).
(§3) The primary metabolite of aspirin, salicylic acid, in culture medium was examined by Trinder's method^26. Equal number of fecal bacteria (estimated by optical density (OD) 600) from APC^min/+ mice with and without antibiotic treatment were inoculated into the brain heart infusion (BHI) medium (Thermo Fisher Scientific) containing aspirin (10 mM). After 2-hour co-incubation at 37° C., the level of salicylic acid in medium was measured by Trinder's method^26. Briefly, the supernatant of medium was mixed with a solution containing 40 g ferric nitrate, 40 g mercuric chloride and 120 mL 1N HCL in 1 L ddH2O at 1:5 ratio. Salicylic acid was quantified by absorbance value at 540 nm. The plasma and luminal content levels of salicylic acid were evaluated by UHPLC-Q-TOF/MS.
To determine the reason for the enhanced CRC inhibitory effect of aspirin in microbiota-depleted mice, the plasma level of aspirin was evaluated in mice with or without intact microbiota. Antibiotics cocktail was administered to APC^min/+ mice for five days followed by oral administration of aspirin (10 mg/kg) (FIG. 4A), and subsequent UHPLC-Q-TOF/MS analysis (FIG. 4B). […] To confirm this observation, the level of salicylic acid, the primary metabolite of aspirin, was evaluated in the plasma. The plasma level of salicylic acid increased at 1 h post aspirin administration in microbiota-depleted mice compared to mice with intact microbiota (FIG. 9). These findings indicate that the gut microbiota is associated with the reduction of aspirin bioavailability.

[6] = system: fecal bacteria; format: in vitro ADME, mice
Experimental: as §3, with “The levels of aspirin from plasma, gut luminal contents and culture medium was determined by ultra-high-performance liquid chromatography-quadrupole time-of-flight mass spectrometry (UHPLC-Q-TOF/MS). The detection sample was mixed in 5 μL 4-[…] (0.39 mg/mL, internal standard). Aspirin and salicylic acid were extracted twice by 400 μL cold methanol. Supernatants were dried under nitrogen stream and detected by UHPLC (1290 Infinity LC, Agilent, Santa Clara, Calif.) and MS (6550 Q-TOF/MS, Agilent, CA). The primary” for “The primary”, “by UHPLC-Q-TOF/MS. Mouse feces were mixed with cooked meat (CM) medium (Thermo Fisher Scientific). […]” for “by UHPLC-Q-TOF/MS.”

[7] = system: gut microbiota; test: Shotgun metagenomics of feces from aspirin-treated versus control APCmin/+ mice; format: in vivo
Experimental: Whole-genome shotgun metagenomic sequencing of fecal samples from mice were performed on Illumina HiSeq 2000 (Illumina, San Diego, Calif.) as previously described^27. […] Mammalian genomes (hg38, felCat8, canFam3, mm10, rn6, susScr3, galGal4 and bosTau8; UCSC Genome Browser) and 6877 bacterial plasmids (NCBI RefSeq database accessed on May 12, 2016), 2116 complete plastomes (NCBI RefSeq database accessed on May 12, 2016) and 6093 UNiVec sequences (NCBI RefSeq database accessed on May 12, 2016), which are potential habitat-/laboratory-associated or extra-chromosomal sequence contaminants, were removed after alignment using Bowtie2 v_2.2.9 with “very-sensitive” default settings. Taxonomy was assigned to metagenomic reads using k-mer-based algorithms implemented in Kraken taxonomic annotation pipeline with each k-mer in a read mapped to the lowest common ancestor of all reference genomes with exact k-mer matches. Each query was thereafter classified to a taxon with the highest total hits of k-mer matched by pruning the general taxonomic trees affiliated with mapped genomes. The final metagenomic read counts were rarified to the sample with the lowest value and further normalized by cumulative sum scaling. In-house fecal metagenomic sequences were examined for the abundance of candidate bacteria identified from mouse fecal samples^27,28.

[8] = system: COX-2; test: COX-2 mRNA in distal colonic tissues by qRT-PCR; format: in vivo, mice; conditions: for tissue COX-2 expression: compared to control mice
Experimental: Total RNA in distal colonic tissues was extracted using TRIzol reagent (Thermo Fisher Scientific). The quality and quantity of RNA were determined by NanoDrop2000 spectrophotometer. Complementary DNA (cDNA) was synthesized from 1000 ng of the extracted RNA by reverse transcription (PrimeScript RT Reagent Kit with gDNA Eraser) (Takara, Japan) and analyzed by qPCR with normalization by GAPDH. The primers used were: […]

[9] = system: colorectal tumorigenesis; test: AOM/DSS-induced colorectal cancer model in conventional C57BL/6 mice; format: in vivo
Text: as §1, with “For each cycle, mice were allowed free access to drinking water supplemented with 2.0% DSS for 5 days, followed by 16 days of regular water. Drinking” for “Drinking”, “microbiota.” for “microbiota. Aspirin (Byer, Leverkusen, Germany), freshly prepared (400 mg/L) in drinking water twice a week, was continuously given to mice through the entire experiment.”

[10] = system: PGE2; test: Plasma PGE2 by ELISA; format: in vivo, mice
Experimental: The plasma levels of PGE2 were measured using Multispecies Competitive ELISA Kit (Thermo Fisher Scientific). Briefly, 500 μL ice-cold methanol was added to 150 μL of plasma sample with 28 μM indomethacin and mixed vigorously. After acidification by 2M HCl to pH 3.5, the aqueous layer was extracted with 500 μL chloroform and centrifuged at 2000 g for 20 min^25. The […] organic phase was discarded, and the remaining aqueous phase was evaporated to dryness under nitrogen, before measurement by the kit.

[11] = Plasma and luminal aspirin/salicylic acid level in L. sphaericus-monocolonized germ-free mice; format: in vivo; conditions: for plasma level of aspirin: L. sphaericus-monocolonized germ-free mice compared with control germ-free mice
Experimental: as §2, §3
In order to determine whether L. sphaericus can degrade aspirin and impacts its bioavailability in vivo, germ-free mice were gavaged with L. sphaericus (1×10^8 CFU) once/day for three days, followed by oral administration of aspirin (10 mg/kg) (FIG. 6C). […] Taken together, these findings from in vitro and in vivo experiments indicate that L. sphaericus causes aspirin degradation in the gut, thereby reducing aspirin bioavailability.

[12] = AOM/DSS-treated conventionalized germ-free mice
[13] = AOM/DSS-treated germ-free mice, relative to untreated germ-free control mice
[14] = 0.5 h post oral aspirin 10 mg/kg
[15] = aspirin-treated APCmin/+ mice compared to control
[16] = AOM/DSS mice with depleted microbiota
[17] = APCmin/+ mice with depleted microbiota
[18] = aspirin 400 mg/L drinking water, microbiota-depleted (antibiotics cocktail) AOM/DSS-treated mice, vs no aspirin
[19] = high-dose aspirin 1200 mg/L, conventional AOM/DSS-treated mice gavaged with L. sphaericus twice/week
[20] = higher dose aspirin 1200 mg/L in drinking water, microbiota-intact AOM/DSS-treated mice, vs mice without aspirin

**Q.** Which “growth of L. sphaericus” value [1] does the source give for `CC1(C)S[C@@H]2[C@H](NC(=O)[C@H](N)c3ccccc3)C(=O)N2[C@H]1C(=O)O` [ampicillin] here?
**A.** Its value is “inhibiting the growth”.

**Q.** What does the source list for `CC(=O)Oc1ccccc1C(=O)O` [aspirin, acetylsalicylic acid]?
**A.** level in circulation, effect of gut microbiota ([2]; after oral administration): reducing its level in circulation; difference in blood levels of aspirin in rats with and without microbial depletion ([2]; intravenous administration): abolished by intravenous administration; antithrombotic activity, effect of gut microbiota ([2]; oral administration): reduced the antithrombotic activity; colorectal tumor load [3]: significantly decreased; colorectal tumor number [3]: significantly decreased; suppressive effect on tumorigenesis (tumor load) [4, 12]: impaired by conventionalization; suppressive effect on tumorigenesis (tumor number) [4, 12]: impaired by conventionalization; colorectal tumor load [4, 13]: significantly reduced; colorectal tumor number [4, 13]: significantly reduced; plasma level of aspirin [5, 14]: significantly increased; plasma level of aspirin ([5]; 1 h post oral aspirin 10 mg/kg): significantly increased; plasma level of salicylic acid (primary metabolite of aspirin) ([5]; 1 h post oral aspirin 10 mg/kg, microbiota-depleted mice compared to mice with intact microbiota): increased; salicylic acid level in the medium (UHPLC-Q-TOF/MS) [6]: not significantly different; association between microbial community composition and aspirin treatment (multivariate component analysis) ([7]; antibiotics-naive aspirin-treated APCmin/+ vs control mice): significant associations; Bifidobacterium and Lactobacillus genera (linear discriminant analysis effect size) [7, 15]: enrichment; Clostridium and Clostridiodes genera [7, 15]: depleted; probiotic species B. pseudolongum, B. breve, B. animalis, L. reuteri, L. gasseri, L. johnsonii [7, 15]: enriched; colonic COX-2 mRNA level [8, 16]: significantly decreased; COX-2 expression ([8]; AOM/DSS-treated germ-free mice): reductions; colonic COX-2 mRNA level [8, 17]: significantly decreased; tissue COX-2 expression ([8]; conventional mice with intact microbiota): no differences; tissue COX-2 expression ([8]; conventionalized germ-free mice): no differences; colorectal tumor load [9, 18]: significant reductions; colorectal tumor number [9, 18]: significant reductions; preventive effect on tumor load [9, 19]: marginally; preventive effect on tumor number [9, 19]: impaired the preventive effect; colorectal tumor load [9, 20]: significantly reduced; colorectal tumor number [9, 20]: significantly reduced; plasma PGE2 level [10, 16]: significantly decreased; plasma PGE2 level ([10]; AOM/DSS-treated germ-free mice): reductions; plasma PGE2 level [10, 17]: significantly decreased; plasma PGE2 level ([10]; conventional mice with intact microbiota, compared to control mice): no differences; plasma PGE2 level ([10]; conventionalized germ-free mice, compared to control mice): no differences; plasma level of aspirin [11, 14]: significantly reduced; plasma level of aspirin ([11]; 1 h post oral aspirin 10 mg/kg): significantly reduced; level of salicylic acid in the colon luminal content ([11]; 3 h post oral aspirin 10 mg/kg, L. sphaericus-monocolonized mice compared to control germ-free mice): significantly reduced; plasma level of salicylic acid ([11]; 3 h post oral aspirin 10 mg/kg, L. sphaericus-monocolonized mice vs control germ-free mice): significantly lowered
